Two molecules from patent publication US20260137745A1, “QUERCETAGETIN ENRICHED MARIGOLD EXTRACTS, COMPOSITIONS, METHODS OF PREPARATION AND USE THEREOF” (AVT NATURAL PRODUCTS LTD., priority 2022, published 2026) can be followed below.

Assay [1] in a line: Oxygen Radical Absorbance Capacity (ORAC) assay. The format is biochemical. As to conditions: higher is better. As to the method:
The Oxygen Radical Absorbance Capacity (ORAC) assay is a method that measures the antioxidant capacity of a substance. The ORAC assay measures a fluorescent signal from a probe that is quenched in the presence of Reactive Oxygen Species (ROS). […] In accordance with this protocol, ORAC assay was evaluated (using known protocols) for the composition comprising QG40 extract; the composition comprising QG90 extract and compared the same with composition comprising quercetin. […] Higher the ORAC value, means better performance by the composition.

Assay [2] deals with Human Adult Epidermal Melanocytes (HAEM). The experiment in a line: Cellular melanin inhibition assay. The format is cell-based. As to conditions: Melanocyte, read-out: melanin inhibition IC50. As to the method: Cellular melanin inhibition assay is a cell-based assay designed for measuring Melanin inhibition in Human Adult Epidermal Melanocytes (HAEM). Darkly pigmented melanocytes were treated with test samples and incubated for 72 hrs. Post incubation, melanin was extracted and measured at an absorbance of 490 nm to evaluate the non-cytotoxic concentration of test sample (i.e. composition with QG40 extract; the composition with QG90 extract and composition with quercetin) for melanin inhibition.

The nature of the next assay: DPPH Antioxidant Assay. The assay is classed as biochemical. The settings on record: lower is better. As to the method:
DPPH assay is considered a valid accurate and easy method to evaluate radical scavenging activity of antioxidants. DPPH [1,1-diphenyl-2-picryl hydrazyl] is a stable free radical with purple color. Antioxidants reduce DPPH to 1,1-diphenyl-2-picryl hydrazine, a color less compound which is measured at an absorbance of […]. This is an accepted mechanism for screening the antioxidant activity of plant extracts in a concentration dependent manner. Accordingly, the DPPH Antioxidant Assay was conducted as per known protocols for the compositions comprising QG40, and compositions comprising QG90, and Quercetin.
(DPPH is a stable violet radical that fades when it is reduced.)

For assay [3], the system named is Keratinocyte (HACAT) cells. The assay is described as follows: Cellular ROS Assay. The settings on record: Homo sapiens, DCF-DA probe, flow cytometry, read-out: ROS inhibition IC50. The format is cell-based. As to the method: The Cellular ROS Assay is a cell-based assay designed for measuring Reactive Oxygen Species activity within a cell using the cell-permeable fluorogenic probe 2′. 7′-Di chloro dihydro fluorescein diacetate (DCF-DA). […] ROS induces the modification of carboxy-H2DCFDA that fluoresces green as detected by flow cytometry. ROS inhibition was evaluated for the composition with QG40 extract; the composition with QG90 extract and composition with quercetin.
For orientation: In flow cytometry, cells or beads pass a laser one at a time.

Values after ≈ are worked out from the molar mass of the structure shown. Read-outs that look alike come from different tables or passages of the source.

Take `O.O.O=c1c(O)c(-c2ccc(O)c(O)c2)oc2cc(O)cc(O)c12` [Composition having Quercetin, Quercetin dihydrate]: the ORAC value in assay [1] is 18.69 m1\4 TE/g. Moreover, the values for the 50% inhibitory concentration (IC50) in assay [2] (72 h) and in assay [3] were 9.62 µg/mL and 16.5 µg/mL, respectively. Also, in “DPPH Antioxidant Assay”, the “DPPH Scavenging activity (IC50)” value turned out to be 6.27 µg/mL.

For the molecule `O=c1cc(CO)occ1O` [Kojic acid], the half-inhibitory concentration (IC50) in assay [2] (darkly pigmented melanocytes, 72 hrs incubation) was 25 µg/mL (≈ 176 µM).

Usually IC50 stands for the concentration at which inhibition is half-maximal.
